Among the data in BindingDB's records for doi:10.1016/s0960-894x(03)00461-x (Eli Lilly, 2003) are IC50 values, retold here.

Assay in all cases: CDK Kinase Inhibition Assay
Holding throughout (conditions): 25 °C

In assay [1] the target is Cyclin-dependent kinase 2/G1/S-specific cyclin-E1 (Homo sapiens, UniProt P24941).
Assay [2] deals with cAMP-dependent protein kinase catalytic subunit alpha (Bos taurus, UniProt P00517).
Assay [3] deals with Calcium/calmodulin-dependent protein kinase type II subunit alpha (Rattus norvegicus, UniProt P11275).
Sequence of Calcium/calmodulin-dependent protein kinase type II subunit alpha (P11275 whole entry): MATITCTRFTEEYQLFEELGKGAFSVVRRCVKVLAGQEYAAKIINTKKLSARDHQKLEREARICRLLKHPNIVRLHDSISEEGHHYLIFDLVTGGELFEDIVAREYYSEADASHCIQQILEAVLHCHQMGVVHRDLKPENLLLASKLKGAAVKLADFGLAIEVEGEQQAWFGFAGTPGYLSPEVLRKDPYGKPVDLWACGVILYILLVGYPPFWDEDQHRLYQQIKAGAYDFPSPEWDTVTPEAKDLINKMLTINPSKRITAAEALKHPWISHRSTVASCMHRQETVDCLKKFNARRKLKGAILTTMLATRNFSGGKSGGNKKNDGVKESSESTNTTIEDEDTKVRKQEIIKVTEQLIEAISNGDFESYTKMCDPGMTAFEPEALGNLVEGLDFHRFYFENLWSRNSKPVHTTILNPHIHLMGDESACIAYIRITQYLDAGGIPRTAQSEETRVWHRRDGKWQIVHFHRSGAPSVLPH

For `COc1ccc2c3c4c(c5c(ccc6ccn(C)c65)c3n(CCCN3CCC(O)CC3)c2c1)C(=O)NC4=O` [3-[3-(4-hydroxypiperidin-1-yl)propyl]-6-methoxy-18-methyl-3,13,18-triazahexacyclo[14.7.0.0^{2,10}.0^{4,9}.0^{11,15}.0^{17,21}]tricosa-1(16),2(10),4(9),5,7,11(15),17(21),19,22-nonaene-12,14-dione], the IC50 in assay [1] is 2.1 µM.

`CCc1ccc2c(c1)[nH]c1c3ccc4ccn(C)c4c3c3c(c21)C(=O)NC3=O` [6-ethyl-18-methyl-3,13,18-triazahexacyclo[14.7.0.0^{2,10}.0^{4,9}.0^{11,15}.0^{17,21}]tricosa-1(16),2(10),4(9),5,7,11(15),17(21),19,22-nonaene-12,14-dione]: the IC50 in assay [1] was 0.36 µM; in assay [2], over 20 µM. Consider `COc1ccc2c3c4c(c5c(ccc6ccn(C)c65)c3n(CCN3CCCCC3)c2c1)C(=O)NC4=O` [6-methoxy-18-methyl-3-[2-(piperidin-1-yl)ethyl]-3,13,18-triazahexacyclo[14.7.0.0^{2,10}.0^{4,9}.0^{11,15}.0^{17,21}]tricosa-1(16),2(10),4(9),5,7,11(15),17(21),19,22-nonaene-12,14-dione], for which the IC50 in assay [2] and in assay [3] was over 20 µM throughout. Turning to `COc1ccc2c3c4c(c5c(ccc6ccn(C)c65)c3n(CCCN3CCOCC3)c2c1)C(=O)NC4=O` [6-methoxy-18-methyl-3-[3-(morpholin-4-yl)propyl]-3,13,18-triazahexacyclo[14.7.0.0^{2,10}.0^{4,9}.0^{11,15}.0^{17,21}]tricosa-1(16),2(10),4(9),5,7,11(15),17(21),19,22-nonaene-12,14-dione], the IC50 in assay [2] and in assay [3] was over 20 µM in each case. Consider `COc1ccc2c3c4c(c5c(ccc6ccn(C)c65)c3n(CCCN3CCSCC3)c2c1)C(=O)NC4=O` [6-methoxy-18-methyl-3-[3-(thiomorpholin-4-yl)propyl]-3,13,18-triazahexacyclo[14.7.0.0^{2,10}.0^{4,9}.0^{11,15}.0^{17,21}]tricosa-1(16),2(10),4(9),5,7,11(15),17(21),19,22-nonaene-12,14-dione], for which the IC50 in assay [2] and in assay [3] was over 20 µM each time.

In the case of `Cn1ccc2cc(F)c3c4[nH]c5ccccc5c4c4c(c3c21)C(=O)NC4=O` [23-fluoro-18-methyl-3,13,18-triazahexacyclo[14.7.0.0^{2,10}.0^{4,9}.0^{11,15}.0^{17,21}]tricosa-1(16),2(10),4(9),5,7,11(15),17(21),19,22-nonaene-12,14-dione], in assay [2], the IC50 is over 20 µM.

On to `COC(=O)C1CCN(CCc2cccc3c2[nH]c2c4ccc5ccn(C)c5c4c4c(c32)C(=O)NC4=O)CC1` [methyl 1-(2-{18-methyl-12,14-dioxo-3,13,18-triazahexacyclo[14.7.0.0^{2,10}.0^{4,9}.0^{11,15}.0^{17,21}]tricosa-1(16),2(10),4(9),5,7,11(15),17(21),19,22-nonaen-5-yl}ethyl)piperidine-4-carboxylate], for which, in assay [2], the IC50 was over 20 µM.
